Literature values in EP4545067A1, “HIGHY DOSED DERMALLY […] PREPARATION HAVING AN INCREASED DRUGLOAD IN THE TARGET CO[…] IMPROVED TREATMENT OF ECTOPARASITE INFESTATION” (Infectopharm Arzneimittel und Consilium GmbH, priority 2023, dated 2025).

Conditions: bei 20 °C

CC1(C)C(C=C(Cl)Cl)C1C(=O)OCc1cccc(Oc2ccccc2)c1 (stereo not shown) [Permethrin, 3-(2,2-Dichlorethenyl)-2,2-dimethylcyclopropancarboxylsäure-(3-phenoxyphenyl)methylester]
Löslichkeit in Wasser: 0,2 mg·l^-1
